Patent US5849525A, “Compositions corresponding to a proton-coupled peptide transporter and methods of making and using same” (Brigham and Women's Hospital, Inc., priority 1995, dated 1998)
One block for each molecule: values may come before it. Square brackets hold non-standard residues; d marks the D form. Peptide text beside a SMILES is read from it. Sar = CNCC(=O)O

How the values were obtained:
[1] = target: T1, proton-coupled peptide transporter (Oryctolagus cuniculus, UniProt P36836); test: Two-electrode voltage clamp of Xenopus laevis oocytes injected with transporter cRNA: substrate-evoked inward currents and Km; assay type: cell-based, rabbit; conditions: uptake solution pH 5.5
T1 construct: Xenopus laevis oocytes were injected with cRNA coding the proton-coupled peptide transporter; expressed in transfected cells; host or cells: Xenopus laevis oocytes injected with cRNA transcribed in vitro from the cloned cDNA
T1 sequence (P36836 1-707): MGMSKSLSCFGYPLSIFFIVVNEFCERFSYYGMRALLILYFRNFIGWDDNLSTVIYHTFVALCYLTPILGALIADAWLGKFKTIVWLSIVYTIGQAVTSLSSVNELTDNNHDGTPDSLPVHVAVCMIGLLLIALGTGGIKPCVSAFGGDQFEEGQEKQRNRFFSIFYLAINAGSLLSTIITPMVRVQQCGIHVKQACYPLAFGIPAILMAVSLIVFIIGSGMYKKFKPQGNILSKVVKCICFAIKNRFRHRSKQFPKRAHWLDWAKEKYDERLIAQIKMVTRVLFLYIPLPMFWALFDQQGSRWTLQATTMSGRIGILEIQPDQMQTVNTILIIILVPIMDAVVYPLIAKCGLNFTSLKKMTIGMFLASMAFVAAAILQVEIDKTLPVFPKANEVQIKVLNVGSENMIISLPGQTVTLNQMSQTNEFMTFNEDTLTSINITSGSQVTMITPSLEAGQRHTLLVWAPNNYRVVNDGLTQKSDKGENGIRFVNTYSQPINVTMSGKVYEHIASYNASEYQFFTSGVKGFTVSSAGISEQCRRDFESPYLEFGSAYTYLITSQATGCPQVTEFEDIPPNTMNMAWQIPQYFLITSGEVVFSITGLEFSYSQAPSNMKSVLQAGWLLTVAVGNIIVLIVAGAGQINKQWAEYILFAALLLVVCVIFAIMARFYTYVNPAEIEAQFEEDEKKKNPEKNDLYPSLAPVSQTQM
Text: These oocytes were subjected to two electrode voltages clamp analysis (Gene Clamp 500, Axon Instruments, California) in the manner described in Kanaisy & Hediger, M. A. Nature 360, 467-71 (1992).
FIG. 9 depicts electrophysiological measurements of transformed cocytes as a percent of glycyl-sarcosine evoked current. Data representing glycyl-sarcosine are depicted as a solid black bar. Data representing peptide are depicted with dotted bars. Data representing antibiotics are depicted with hatched bars.
By altering peptide concentrations, current amplitudes for different compositions, Km values were determined.

[2] = target: T1, proton-coupled peptide transporter; test: Uptake of C14-glycyl-sarcosine by Xenopus laevis oocytes injected with rabbit jejunum poly(A)+ RNA or transporter cRNA; assay type: cell-based; conditions: 100 μM C14-Gly-Sar, 1 hour, pH 5.5
Protocol: This example describes the uptake of radiolabeled glycyl-sarcosine (C^14 -Gly-Sar) by Xenopus laevis oocytes injected with poly(A)^+ RNA from rabbit jejunum or with cRNA synthesized by in vitro transcription of proton-coupled peptide transporter cDNA.
All uptakes in this and the following figures were performed with 6-8 oocytes, 3 days after injection. RNA-injected oocytes were injected with 25 ng cRNA in 50 nl.
Oocytes injected with cRNA coding a proton-coupled peptide transporter were incubated for 1 hour in uptake solution (100 mM NaCl, 2 mM KCl 1 mM MgCl2, 1 mM CaCl2, 3 mM HEPES, 3 mM MES, 3 mM Tris, pH 5.5) in the presence of 100 μM C^14 -glycol-sarcosine (specific radioactivity, 112 mCi/mmol, custom synthesized by the Radiochemical Center, Amersham, U.K.). The oocytes were rinsed with ice-cold washing solution (uptake solution with pH adjusted to 7.5 with Tris base) and the radioactivity of each oocyte was measured by scintillation counting.

[3] = target: T1, proton-coupled peptide transporter; test: Hybrid depletion of rabbit small intestine poly(A)+ RNA with antisense/sense DNA oligonucleotide before oocyte injection, glycyl-sarcosine uptake; assay type: cell-based; conditions: oocytes receiving rabbit poly(A)+ RNA without sense or antisense nucleic acid
Text: This example describes hybrid depletion of rabbit small intestine poly(A)^+ RNA before injection into Xenopus laevis oocytes. A first admixture was formed of rabbit small intestine derived poly(A)^+ RNA and an antisense DNA oligonucleotide corresponding to the 5'-end coding region of cDNA corresponding to the proton-coupled peptide transporter.
A second admixture was formed of rabbit small intestine derived poly(A)^+ RNA and a sense DNA oligonucleotide corresponding to the same region as the antisense DNA. Both DNAs were twenty-three nucleotides in length. Rabbit jejunum poly(A)^+ RNA (0.5 μg/μl) was incubated with the oligonucleotide (0.25 μg/μl in the presence of 50 mM NaCl at 42° C. for one hour and then injected into oocytes. The uptake of the peptide, glycyl-sarcosine, was measured three days after injection.

[4] = target: T1, proton-coupled peptide transporter; test: C14-glycyl-sarcosine uptake in cRNA-transformed oocytes in sodium-free or chloride-free solutions and at different pH; assay type: cell-based, rabbit
Text: This example describes the stoichiometry and voltage dependence of the proton-coupled peptide transporter. Four days after transformation with cRNA coding the proton-coupled peptide transporter, Xenopus laevis oocytes were examined in the presence of 1 mMC^14 -glycyl-sarcosine in standard uptake solution (pH 5.5), modified to be sodium or chloride ion free.
In sodium-free solutions, the sodium chloride was replaced with choline-chloride. In chloride free solutions, the sodium chloride was replaced with sodium nitrate.
Glycyl-sarcosine uptake was determined from the slope of the time-dependence of 1 to 5 minutes uptake. The results are depicted in bar graph form in FIG. 10. […] That is, the presence of or absence of sodium ion and the presence or absence of chloridion had little or no effect on glycyl-sarcosine uptake. In each instance the uptake was approximately 1000 pmol glycyl-sarcosine.
In this example Xenopus laevis oocytes transformed with cRNA coding the proton-coupled peptide transporter of the preceding example were evaluated for C^14 -glycyl-sarcosine uptake in the standard uptake solutions modified to different pH. Glycyl-sarcosine uptake was determined from the slope of time-dependence of 1 to 5 minute uptakes.

[5] = target: T1, proton-coupled peptide transporter; test: Intracellular pH (pH-sensitive microelectrode) and membrane potential of cRNA-transformed oocytes; assay type: cell-based, rabbit; conditions: pHo 5.5 solution, Gly-Sar 10 mM; for membrane potential Vm after application: depolarized from -20 mV
Text: The example describes hydrogen ion cotransport by Xenopus laevis oocytes transformed with cRNA coding a proton-coupled peptide transporter. Transformed Xenopus laevis oocytes of Example 5 and 6 were implanted with microelectrodes and membrane potential set with electrodes.
Internal pH measurements were taken with microelectrodes, silanized borosilicate pipettes with tips filled with a hydrogen ionophore (I-cocktail B, Fluka). […] After washing with uptake solution without glycyl-sarcosine, each oocyte was clamped at this membrane potential. […] The equation used to calculate the electrochemical potential difference for H^+ (ΔμH) was ΔμH +=RT 1n ([H^+ ] i/[H^+ ]o)+zF (Vi -Vo) and that for Gly-Sar (ΔμGly-Sar) was ΔμGly-Sar =RT 1n ([Gly-Sar] i/ [Gly-Sar]o), where; R is the gas constant, T the absolute temperature (295° K.), F is Faraday's constant, pHi and pHo the intra- and extracellular pH, Gly-Sari and Gly-Saro, the intra-and extracelluar Gly-Sar concentrations, and z the valency.
Oocytes were initially kept in pH 7.4 medium (96 mM NaCl, 1 mM KCl, 1.8 mM CaCl2, 1.0 mM MgCl2 and 5 HEPES). […] In water-injected oocytes, lowering pHo from 7.4 to 5.5 caused a continuous pHi decrease which was not dependent on the expression of the proton-coupled peptide transporter.

[6] = target: T1, proton-coupled peptide transporter; test: Stoichiometry (uptake versus net charge flux) and cumulative C14-glycyl-sarcosine uptake in cRNA-transformed oocytes; assay type: cell-based, rabbit
Protocol: Internal pH measurements were taken with microelectrodes, silanized borosilicate pipettes with tips filled with a hydrogen ionophore (I-cocktail B, Fluka). The membrane potential was measured in uptake solution (pH 5.5) containing 1 mM glycyl-sarcosine. After washing with uptake solution without glycyl-sarcosine, each oocyte was clamped at this membrane potential. […] The equation used to calculate the electrochemical potential difference for H^+ (ΔμH) was ΔμH +=RT 1n ([H^+ ] i/[H^+ ]o)+zF (Vi -Vo) and that for Gly-Sar (ΔμGly-Sar) was ΔμGly-Sar =RT 1n ([Gly-Sar] i/ [Gly-Sar]o), where; R is the gas constant, T the absolute temperature (295° K.), F is Faraday's constant, pHi and pHo the intra- and extracellular pH, Gly-Sari and Gly-Saro, the intra-and extracelluar Gly-Sar concentrations, and z the valency.
This 1:1 coupling ratio is consistent with analysis of the coupling ratio based on thermodynamic considerations. Cumulative uptake of C^14 -glycyl-sarcosine was measured as depicted in FIG. 14.
Data represent the average of the uptakes from 20-24 oocytes after subtraction of the uptakes of water-injected oocytes. After a ten hour incubation in 1 mM non-radiolabeled 1 mM glycyl-sarcosine, the ^14 C-glycyl-sarcosine influx was 1754±403 (n=7) pmol/oocyte.

Xenopus laevis oocytes = test: Thin-layer chromatography of solubilized oocytes incubated in 14C-Gly-Sar (hydrolysis); assay type: in vitro ADME; conditions: 1 mM 14C-Gly-Sar, pH 5.5, seven hours
[7] = target: proton-coupled peptide transporter derived from rabbit (rabbit)
[8] = target: proton-coupled peptide transporter derived from rabbit (rabbit); remark: listed apart in the source
[9] = substrate: CC1(C)S[C@@H]2[C@H](NC(=O)C3(N)CCCCC3)C(=O)N2[C@H]1C(=O)O; test: cells, lysate or membranes; conditions: other: current amplitudes at altered substrate concentrations, pH 5.5, cRNA-injected oocytes
[10] = substrate: NCC(=O)NCC(=O)NCC(=O)O; test: cells, lysate or membranes; conditions: other: current amplitudes at altered substrate concentrations, pH 5.5, cRNA-injected oocytes
[11] = substrate: CC(C)C[C@H](NC(=O)CN)C(=O)O; test: cells, lysate or membranes; assay type: cell-based, rabbit; conditions: other: current amplitudes at altered substrate concentrations, pH 5.5, cRNA-injected oocytes
[12] = substrate: CN(CC(=O)O)C(=O)CN; test: cells, lysate or membranes; assay type: cell-based, rabbit; conditions: other: current amplitudes at altered substrate concentrations, pH 5.5, cRNA-injected oocytes
[13] = substrate: C[C@H](N)C(=O)N[C@@H](CC(=O)O)C(=O)O; test: cells, lysate or membranes; assay type: cell-based, rabbit; conditions: other: current amplitudes at altered substrate concentrations, pH 5.5, cRNA-injected oocytes

Molecule: CC1(C)S[C@@H]2[C@H](NC(=O)C3(N)CCCCC3)C(=O)N2[C@H]1C(=O)O [Cyclacillin]
substrate-evoked inward current [1]: inward current

Molecule: CC(C)C[C@H](NC(=O)CN)C(=O)O [Glycyl-leucine]
substrate-evoked inward current [1]: inward current

Molecule: CN(CC(=O)O)C(=O)CN [Glycyl-sarcosine, glycyl-sarcosine] (H-Gly-[Sar]-OH)
substrate-evoked inward current [1]: strongest current | uptake of glycyl-sarcosine ([2]; oocytes receiving rabbit jejunum poly(A)+ RNA): less than 20 pmol | uptake of glycyl-sarcosine ([2]; oocytes receiving transporter cRNA): ~200 pmol | uptake of glycyl-sarcosine [3]: approximately 8 pmol | glycyl-sarcosine uptake ([4]; 1 mM C14-glycyl-sarcosine, pH 5.5, presence or absence of sodium or chloride ion): approximately 1000 pmol | pH of maximum glycyl-sarcosine uptake ([4]; standard uptake solutions modified to different pH): 5.5 | membrane potential Vm after application [5]: +15 mV | effect on intracellular pH (pHi) ([5]; listed as Gly-Sar): large intracellular acidification | effect on intracellular pH (pHi) ([5]; listed as glycyl-sarcosine): decrease in pH | time to thermodynamic equilibrium of cumulative uptake ([6]; C14-glycyl-sarcosine, cRNA-transformed oocytes): approximately eight | 14C-glycyl-sarcosine influx ([6]; after ten hour incubation in 1 mM non-radiolabeled glycyl-sarcosine, n=7): 1754±403 pmol/oocyte | fraction of intracellular 14C-label that is hydrolyzed glycyl-sarcosine (Xenopus laevis oocytes): no more than one third

B1: proton-coupled peptide transporter (Oryctolagus cuniculus) (protein)
chain: T1 sequence (P36836 1-707)
notes: Xenopus laevis oocytes were injected with cRNA coding the proton-coupled peptide transporter; expressed in transfected cells; host or cells: Xenopus laevis oocytes injected with cRNA transcribed in vitro from the cloned cDNA
Km [9]: 137 µM | Km [10]: 5.1 mM | Km [11]: 81 µM | Km [12]: 1.9 mM | Km [13]: 143 µM

Other lines, results leading:

substrate-evoked inward current [1]: Significant currents
Molecule: CC1=C(C(=O)O)N2C(=O)[C@@H](NC(=O)[C@H](N)c3ccc(O)cc3)[C@H]2SC1 [cefadroxil]

substrate-evoked inward current [1]: Significant currents
Molecule: CC1=C(C(=O)O)N2C(=O)[C@@H](NC(=O)[C@H](N)C3=CCC=CC3)[C@H]2SC1 [cephradine]

effect on intracellular pH (pHi) [5]: no detectable response | membrane potential Vm after application [5]: no detectable response
Molecule: NCC(=O)O [glycine]

Km from current amplitudes [7]: 1.9 mM | uptake of C14-glycyl-sarcosine by oocytes [8]: 200 pmol
Molecule: glycyl-sarcosine (peptide)
